The values below are quoted from earlier work in publication doi:10.1101/2025.04.01.646723v2 (bioRxiv, 2025).

The data set has as its system N. benthamiana leaves. The settings on record: DCIP, 100 μM, at least 5 biological replicates, ref [15].

In the case of nona-arginine [R9], the “cellular internalization (in words)” value is recorded as “efficiently internalized”.
